One assay deals with CDC2L1 (CDK11B) (Homo sapiens (Human), UniProt P21127). Kind of assay: KINOMEscan scanMAX. Type of assay: binding. The conditions noted are these: 2000 nM; read-out: Percent Control.
The next assay concerns the target CHEK1 (Homo sapiens (Human), UniProt O14757). The experiment in a line: KINOMEscan scanMAX. The conditions noted are these: 2000 nM; read-out: Percent Control. Type of assay: binding.
Another assay concerns the target CSNK2A2 (Homo sapiens (Human), UniProt P19784). The experiment in a line: KINOMEscan scanMAX. Type of assay: binding. The note with it: 2000 nM; read-out: Percent Control.
The target of the next assay is MRCKB (CDC42BPB) (Homo sapiens (Human), UniProt Q9Y5S2). Kind of assay: KINOMEscan scanMAX. Type of assay: binding. The conditions noted are these: 2000 nM; read-out: Percent Control.
Chain of MRCKB (CDC42BPB) (Q9Y5S2 whole entry): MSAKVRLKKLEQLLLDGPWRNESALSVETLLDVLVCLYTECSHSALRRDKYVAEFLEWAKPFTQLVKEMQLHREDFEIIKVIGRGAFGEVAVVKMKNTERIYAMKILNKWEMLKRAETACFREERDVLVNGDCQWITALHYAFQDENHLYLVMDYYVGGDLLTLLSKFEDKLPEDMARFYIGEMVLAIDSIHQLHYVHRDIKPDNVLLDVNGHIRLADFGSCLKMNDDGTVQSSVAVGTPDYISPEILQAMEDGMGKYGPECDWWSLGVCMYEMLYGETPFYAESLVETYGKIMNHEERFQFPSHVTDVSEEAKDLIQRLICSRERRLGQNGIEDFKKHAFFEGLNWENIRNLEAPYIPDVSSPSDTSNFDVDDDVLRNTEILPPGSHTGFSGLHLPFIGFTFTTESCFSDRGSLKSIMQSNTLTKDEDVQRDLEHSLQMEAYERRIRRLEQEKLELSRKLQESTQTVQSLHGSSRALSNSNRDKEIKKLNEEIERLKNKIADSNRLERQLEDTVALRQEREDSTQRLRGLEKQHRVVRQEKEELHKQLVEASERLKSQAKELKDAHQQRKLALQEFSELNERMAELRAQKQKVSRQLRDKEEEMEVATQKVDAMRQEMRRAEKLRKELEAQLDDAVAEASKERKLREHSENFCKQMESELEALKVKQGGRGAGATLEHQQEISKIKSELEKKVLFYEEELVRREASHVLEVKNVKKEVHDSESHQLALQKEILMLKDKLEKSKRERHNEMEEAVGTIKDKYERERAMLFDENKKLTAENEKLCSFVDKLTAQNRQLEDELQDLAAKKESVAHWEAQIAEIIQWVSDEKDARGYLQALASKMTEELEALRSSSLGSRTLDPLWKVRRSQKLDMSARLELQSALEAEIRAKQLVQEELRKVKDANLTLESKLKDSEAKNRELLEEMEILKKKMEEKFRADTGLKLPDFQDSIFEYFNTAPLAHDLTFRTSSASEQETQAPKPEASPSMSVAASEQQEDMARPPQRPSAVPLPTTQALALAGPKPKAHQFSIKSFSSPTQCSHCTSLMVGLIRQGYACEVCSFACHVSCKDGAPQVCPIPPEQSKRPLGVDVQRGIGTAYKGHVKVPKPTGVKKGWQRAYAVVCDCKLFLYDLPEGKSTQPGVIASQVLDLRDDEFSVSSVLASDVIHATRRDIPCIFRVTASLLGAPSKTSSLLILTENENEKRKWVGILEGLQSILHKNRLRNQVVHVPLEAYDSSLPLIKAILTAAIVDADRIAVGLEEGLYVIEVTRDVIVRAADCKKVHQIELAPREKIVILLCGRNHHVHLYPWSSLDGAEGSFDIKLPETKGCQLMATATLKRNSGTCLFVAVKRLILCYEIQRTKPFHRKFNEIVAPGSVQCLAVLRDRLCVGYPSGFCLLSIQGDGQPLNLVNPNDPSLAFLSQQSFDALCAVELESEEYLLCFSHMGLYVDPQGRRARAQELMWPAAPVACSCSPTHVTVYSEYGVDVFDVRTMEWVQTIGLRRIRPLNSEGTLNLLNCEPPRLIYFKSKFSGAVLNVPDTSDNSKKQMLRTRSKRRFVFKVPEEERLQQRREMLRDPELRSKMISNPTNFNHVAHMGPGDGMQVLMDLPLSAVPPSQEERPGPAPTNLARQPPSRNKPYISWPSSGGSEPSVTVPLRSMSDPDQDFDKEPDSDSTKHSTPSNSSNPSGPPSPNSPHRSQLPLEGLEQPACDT
The next assay addresses TBK1 (Homo sapiens (Human), UniProt Q9UHD2). The experiment in a line: KINOMEscan scanMAX. Type of assay: binding. The conditions noted are these: 2000 nM; read-out: Percent Control.
The next assay concerns the target ULK3 (Homo sapiens (Human), UniProt Q6PHR2). The experiment in a line: KINOMEscan scanMAX. In kind it is binding. The conditions noted are these: 2000 nM; read-out: Percent Control.
Another assay has as its system CDK8/19. The experiment in a line: Wash-off assay, MYC and JUN expression in 293 cells (QPCR). Type of assay: cell-based, human. The note with it: 1 μM for 2 hours, then wash-off; MYC and JUN. The protocol: RNA was extracted at different time points after wash-off (up to 24 hrs) and expression of MYC and JUN genes that are CDK8/19-dependent in these cells was measured by QPCR. […] In contrast, after Senexin C treatment and wash-off, the effects of Senexin C were largely retained for at least 6 hrs after wash-off.

Chain of TBK1 (Q9UHD2 whole entry): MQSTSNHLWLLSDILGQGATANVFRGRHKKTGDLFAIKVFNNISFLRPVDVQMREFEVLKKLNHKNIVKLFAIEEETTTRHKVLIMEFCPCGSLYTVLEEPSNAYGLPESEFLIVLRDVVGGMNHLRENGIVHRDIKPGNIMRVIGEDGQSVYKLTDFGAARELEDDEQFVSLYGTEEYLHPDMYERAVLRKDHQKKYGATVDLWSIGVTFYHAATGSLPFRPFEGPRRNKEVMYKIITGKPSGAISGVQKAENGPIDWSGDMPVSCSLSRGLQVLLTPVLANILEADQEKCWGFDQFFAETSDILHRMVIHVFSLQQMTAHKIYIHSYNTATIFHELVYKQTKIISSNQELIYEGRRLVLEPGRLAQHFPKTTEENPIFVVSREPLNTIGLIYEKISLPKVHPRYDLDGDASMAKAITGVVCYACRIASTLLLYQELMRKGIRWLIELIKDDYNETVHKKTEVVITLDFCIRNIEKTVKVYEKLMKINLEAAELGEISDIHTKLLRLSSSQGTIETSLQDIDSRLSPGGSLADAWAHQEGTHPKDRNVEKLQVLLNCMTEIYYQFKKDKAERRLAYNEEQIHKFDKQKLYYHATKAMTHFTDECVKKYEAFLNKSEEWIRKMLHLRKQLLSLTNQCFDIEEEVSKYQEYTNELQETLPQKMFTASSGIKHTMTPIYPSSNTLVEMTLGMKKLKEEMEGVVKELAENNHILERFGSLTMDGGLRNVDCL
Chain of CHEK1 (O14757 whole entry): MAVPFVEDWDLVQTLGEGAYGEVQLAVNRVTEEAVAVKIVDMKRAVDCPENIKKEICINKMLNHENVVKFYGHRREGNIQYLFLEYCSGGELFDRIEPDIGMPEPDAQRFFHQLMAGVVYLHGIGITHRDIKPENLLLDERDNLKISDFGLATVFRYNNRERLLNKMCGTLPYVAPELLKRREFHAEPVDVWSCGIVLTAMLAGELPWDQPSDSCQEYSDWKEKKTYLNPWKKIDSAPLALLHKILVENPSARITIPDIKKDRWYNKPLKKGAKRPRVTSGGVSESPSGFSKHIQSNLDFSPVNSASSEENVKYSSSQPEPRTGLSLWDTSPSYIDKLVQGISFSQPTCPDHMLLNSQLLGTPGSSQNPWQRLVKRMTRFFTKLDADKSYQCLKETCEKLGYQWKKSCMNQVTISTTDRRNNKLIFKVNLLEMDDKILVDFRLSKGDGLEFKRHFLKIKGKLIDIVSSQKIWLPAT
Chain of CDC2L1 (CDK11B) (P21127 whole entry): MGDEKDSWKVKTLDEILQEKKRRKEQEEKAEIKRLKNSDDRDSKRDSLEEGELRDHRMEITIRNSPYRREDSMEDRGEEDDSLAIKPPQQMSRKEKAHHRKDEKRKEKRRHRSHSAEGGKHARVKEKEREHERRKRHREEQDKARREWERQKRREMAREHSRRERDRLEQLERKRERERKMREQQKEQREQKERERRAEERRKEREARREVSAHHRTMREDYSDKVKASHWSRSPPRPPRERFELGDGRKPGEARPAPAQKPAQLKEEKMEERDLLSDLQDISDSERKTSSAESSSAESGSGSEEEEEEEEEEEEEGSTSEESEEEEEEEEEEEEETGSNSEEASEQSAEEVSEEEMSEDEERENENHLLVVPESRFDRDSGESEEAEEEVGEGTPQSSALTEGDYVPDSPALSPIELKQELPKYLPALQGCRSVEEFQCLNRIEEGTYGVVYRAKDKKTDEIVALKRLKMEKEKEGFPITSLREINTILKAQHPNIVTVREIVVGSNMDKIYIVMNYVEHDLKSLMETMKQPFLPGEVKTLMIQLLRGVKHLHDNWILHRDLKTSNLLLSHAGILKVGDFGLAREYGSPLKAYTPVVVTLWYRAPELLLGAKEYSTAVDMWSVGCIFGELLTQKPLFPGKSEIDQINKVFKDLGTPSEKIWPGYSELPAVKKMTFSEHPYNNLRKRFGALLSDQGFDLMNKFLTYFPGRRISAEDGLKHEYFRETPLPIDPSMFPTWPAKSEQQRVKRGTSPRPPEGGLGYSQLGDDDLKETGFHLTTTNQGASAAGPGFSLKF
Chain of CSNK2A2 (P19784 whole entry): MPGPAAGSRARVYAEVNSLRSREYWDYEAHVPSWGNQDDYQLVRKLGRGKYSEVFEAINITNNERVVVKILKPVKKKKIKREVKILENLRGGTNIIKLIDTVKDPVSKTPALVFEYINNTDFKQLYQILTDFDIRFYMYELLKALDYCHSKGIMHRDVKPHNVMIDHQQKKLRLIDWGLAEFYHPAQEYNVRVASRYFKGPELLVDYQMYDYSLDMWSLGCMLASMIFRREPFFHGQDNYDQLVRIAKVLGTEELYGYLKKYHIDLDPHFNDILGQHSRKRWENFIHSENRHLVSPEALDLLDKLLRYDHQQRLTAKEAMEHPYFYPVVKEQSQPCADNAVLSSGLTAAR
Chain of ULK3 (Q6PHR2 whole entry): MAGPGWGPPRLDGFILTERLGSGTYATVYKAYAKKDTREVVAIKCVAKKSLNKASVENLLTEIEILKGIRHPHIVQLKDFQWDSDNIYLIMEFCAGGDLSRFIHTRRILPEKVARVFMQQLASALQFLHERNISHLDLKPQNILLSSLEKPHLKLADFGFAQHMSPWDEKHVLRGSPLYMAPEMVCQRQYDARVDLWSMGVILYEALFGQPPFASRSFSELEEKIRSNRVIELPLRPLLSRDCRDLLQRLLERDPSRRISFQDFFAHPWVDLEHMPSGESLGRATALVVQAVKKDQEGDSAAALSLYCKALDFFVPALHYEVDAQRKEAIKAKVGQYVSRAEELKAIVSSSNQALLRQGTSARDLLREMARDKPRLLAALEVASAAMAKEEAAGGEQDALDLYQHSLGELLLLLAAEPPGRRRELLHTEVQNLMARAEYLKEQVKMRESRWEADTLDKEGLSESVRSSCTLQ

With `CN1CCN(C(=O)c2ccc3cc(CCNc4ccnc5ccc(C#N)cc45)ccc3c2)CC1` [compound 6148, 4-((2-(6-(4-methylpiperazine-1-carbonyl)naphthalen-2-yl)ethyl)amino)quinoline-6-carbonitrile], the remaining binding at 2 µM stood at 96% on CDC2L1 (CDK11B); 100% on CHEK1; 64% on CSNK2A2; 100% on MRCKB (CDC42BPB); 88% at TBK1; 70% at ULK3. Further, the “Time effects largely retained after wash-off” value in the assay with CDK8/19 is given as “at least 6 hrs”.

Values taken from US12281080B2, “Quinoline-based compounds and methods of inhibiting CDK8/19” (University of South Carolina, priority 2018, dated 2025).
